Data on 1 compound can be found in patent US9284325B2, “Spectinamides as anti-tuberculosis agents” (UNIVERSITY OF TENNESSEE RESEARCH FOUNDATION, priority 2009, dated 2016).

For orientation: clearance means the rate of elimination divided by the concentration. The low end stands for inefficient removal, the high end for efficient removal. In general, MRT refers to a mean duration of stay, worked out from the concentration-time curve.

The test system of data set [1] is Burkholderia cepacia ATCC 25416. Kind of data set: MIC determination by microbroth dilution. Format: cell-based. Particulars: ATCC25416, read-out: MIC B. cepcia. (Broth dilution looks for growth in wells or tubes with falling amounts of substance.)
Data set [2] concerns Acinetobacter baumannii ATCC 19606. In words: MIC determination by microbroth dilution. Particulars: ATCC19606. The class given is cell-based.
A further data set relates to P. aeruginosa PAO1. In words: MIC determination by microbroth dilution. Format: cell-based, Pseudomonas aeruginosa. Particulars: Pseudomonas aeruginosa.
Data set [3] has as its system Strenotrophomonas maltophilia ATCC 13637. Kind of data set: MIC determination by microbroth dilution. The class given is cell-based.
Another data set concerns E. coli K12 ΔtolC. In words: microbe, parasite or virus in culture. Format: cell-based. The settings on record: Escherichia coli, read-out: MIC E. coli K12 ΔtolC.
A further data set is described as follows: in vivo. Particulars: male, Sprague-Dawley, rat, iv. On the set-up: species or system rats. As for the experimental part: Pharmacokinetic Studies: Catheterized male Sprague-Dawley rats (jugular vein alone for oral study and jugular vein and femoral vein for intravenous study) weighing approximately 225 g were obtained from Harlan Bioscience (Indianapolis, Ind., United States of America). The animals were kept on a 12 hr light/dark cycle with food and water available ad libitum. Groups of rats (n=4) received either an intravenous (IV) or oral dose of a test compound at a dose level of 10 mg/kg or 100 mg/kg, respectively. For oral administration, the animals were fasted overnight and until 4 hr after administration of test compound. Serial blood samples (approx. 250 μL) were collected pre-dose and at predetermined time points post-dose until 48 hours. Plasma was separated immediately by centrifugation (10,000 rpm for 10 min at 4° C.) and stored at −80° C. until analysis. Urine specimens were collected for a period of 48 hours following drug administration. The study protocol was approved by the institutional animal care and use committee of the University of Tennessee Health Science Center (Memphis, Tenn., United States of America).
Sample Preparation and LC-MS/MS Assay: A calibration curve ranging from 7.81-1000 μg/L was constructed for each test compound by spiking the test compound into 50 μL of blank plasma. […] Plasma proteins were precipitated by the addition of four volumes of ice cold methanol containing IS. These samples were vortexed and kept on ice for 20 minutes. Following this, the samples were centrifuged at 10,000 rpm for 10 minutes at 4° C. and the supernatants were diluted if necessary and injected onto LC-MS/MS for analysis. Chromatographic separations were carried out using a Shimadzu liquid chromatograph (Shimadzu Corporation, Kyoto, Japan) consisting of two pumps, online degasser, system controller and a CTC Leap auto sampler (Leap Technologies, Carrboro, N.C., United States of America). A gradient of methanol and 10 mM ammonium acetate at pH 3.5 was used at a flow rate of 0.4 mL/min. A Phenomenex® Luna 3μ HILIC, 100×4.6 mm column (Phenomenex, Torrance, Calif., United States of America) protected with a guard column was used for the separation. 10 μL of sample was injected onto the column and the eluate was led directly into an API 3000 triple-quadrupole mass spectrometer (Applied Biosystems ABI/MDS-Sciex, Foster City, Calif., United States of America) equipped with an electrospray ion source. The instrument was operated in the positive ion mode with nebulizer gas (NEB) at 7 psi, curtain gas (CUR) at 8 psi, collision gas (CAD) at 10 psi, ion spray voltage (IS) at +4000 V and temperature (TEM) at 500° C. The resulting multiple reaction monitoring chromatograms were used for quantification using Analyst software version 1.4.1 (Applied Biosystems ABI/MDS-Sciex, Foster City, Calif., United States of America).
Pharmacokinetic Data Analysis: Plasma concentration-time data for oral dose were analyzed by non-compartmental analysis. A two compartment open model with bolus input and first order output was used to analyze the IV plasma concentration-time data. The area under the plasma concentration-time curve from time 0 to infinity (AUCinf) was calculated by the trapezoidal rule with extrapolation to time infinity. Mean residence time (MRT), the average amount of time a particle remains in a compartment of system was calculated for IV dose using MRT=AUMCinf/AUCinf where AUMCinf is the area under the moment curve when the concentration-time curve is extrapolated to infinity. The systemic clearance (CL) was calculated using the equation CL=Doseiv/AUCinf iv, where Doseiv and AUCinf, iv are the IV dose and corresponding area under the plasma concentration-time curve from time 0 to infinity, respectively. An estimate of volume of distribution at steady state (Vss) was obtained from IV data using Vss=MRT*CL. […]

Structures can show the parent of a compound that is named as a salt.

Take `CN[C@@H]1[C@H](O)[C@H](NC)C2O[C@]3(O)C(OC2[C@H]1O)O[C@H](C)C[C@H]3NC(=O)Cc1ccccn1` (stereo partly drawn) [Compound 1329, 3′-Dihydro-3′-deoxy-4(R)-(pyridin-2yl)acetylamino spectinomycin Dihydrochloride]: in data set [1], the MIC was greater than 200 µg/mL. Also, the MIC in data set [2] is greater than 200 µg/mL. Moreover, the MIC in the data set on P. aeruginosa PAO1 amounted to 100 µg/mL. Further, in data set [3], the MIC was found to be 200 µg/mL. In the data set on E. coli K12 ΔtolC, the MIC was 50 µg/mL. Further, in “in vivo”, the clearance was 13.3 mL/min/kg, the “dose eliminated unchanged in the first 6 hours” value was “approx. 40%”, the “excretion ratio (renal clearance to glomerular filtration rate)” value is given as 1.7 and the “fraction of dose excreted unchanged by the kidneys” value is 0.46. Moreover, in the data set “in vivo”, the hepatic extraction ratio is reported as 0.13. Further, the MRT in the data set “in vivo” (10 mg/kg) was roughly 5.3 h.
